Source: patent publication US20210386367A1, “DEVICES AND SYSTEMS FOR GASTROINTESTINAL MICROBIOME DETECTION AND MANIPULATION” (Progenity, Inc., priority 2018, published 2021)
Values after ≈ are worked out from the molar mass of the structure shown.

Assays:
Type in all cases: cell-based
[1] = tested on: Streptococcus pyogenes; test: Broth microdilution MIC, 19 clinical isolates
Experimental: (§1) Minimal inhibitory concentration (MIC) values were determined by broth microdilution or agar dilution in accordance with guidelines from the Clinical and Laboratory Standards Institute (CLSI; (1) “Methods for Dilution Antimicrobial Susceptibility Tests for Bacteria That Grow Aerobically; Approved Standard; 11th ed.” CLSI standard M07-A11, 2018; (2) “Performance Standards for Antimicrobial Susceptibility Testing; Twenty-Eighth Informational Supplement,” CLSI document M100-S28, 2018; and (3) “Methods for Antimicrobial Susceptibility Testing of Anaerobic Bacteria; Approved Standard—Eighth Edition,” CLSI document M11-A8, 2012).
(§2) Tested aerobically by broth microdilution: • Escherichia coli, n=50 • Klebsiella spp., n=50 • Pseudomonas aeruginosa, n=50 • Streptococcus spp., n=50 • Staphylococcus aureus, n=50 • Enterococcus faecalis, n=50 • Enterobacter aerogenes, n=50 • Proteus mirabilis, n=50
(§3) Broth microdilution testing of aerobic bacteria was conducted in cation-adjusted Mueller Hinton broth (MHBII). For testing streptococci, lysed horse blood (LHB) was added to MHBII broth at a final concentration of 3%. Where LHB was used, it was added after filtering.
(§4) Broth microdilution susceptibility testing in 96-well microplates was conducted in accordance with CLSI methods (1) and (2). Automated liquid handlers were used to conduct serial dilutions and liquid transfers, including the Multidrop 384 (Labsystems, Helsinki, Finland), Biomek 2000, and the Biomek FX (Beckman Coulter, Fullerton, Calif.). All wells in columns 2 through 12 of a standard 96-well microdilution plate (Costar 3795) were filled with 150 μL of the appropriate diluent. Then, 300 μL of the test agents were added to the wells of column 1 of the plates at 100× the highest final concentration to be tested. Serial two-fold dilutions were made across the rows through column 11 using the Biomek 2000. The wells of column 12 contained no drug and served as the growth control wells. This plate served as the “mother plate” from which MIC assay plates or “daughter plates” were made.
(§5) The daughter plates were loaded with 190 μL per well of the appropriate medium using the Multidrop 384. The daughter plates were created using the Biomek FX which transferred 2 μL of drug solution from each well of a mother plate to each corresponding well of the daughter plate in a single step. A standardized inoculum of each test organism was prepared per CLSI methods (1) to equal a 0.5 McFarland standard, followed by a dilution of 1:20 for aerobes and 1:10 for anaerobes. The plates were then inoculated with 10 μL of the diluted inoculum using the Biomek 2000 from low to high drug concentration, resulting in a final concentration of approximately 5×10^5 CFU/mL per well. An un-inoculated plate was incubated in parallel for each medium for the purpose of assessing solubility of the drug in the test media.
(§6) Inoculated plates were stacked 3 or 4 high, covered with a sterile lid on the top plate, placed into boxes with CO2 planchets (streptococci) or plastic bags (all other isolates). Plates were incubated at 35° C. for 16-24 hr in ambient air for aerobes or for 42-48 hr in the anaerobic environment of the Bactron II anaerobe chamber (Sheldon Manufacturing Co.; Cornelius, Oreg.). Following incubation, the microplates were removed from the incubator and viewed from the bottom using a plate viewer. The MIC values were read and recorded as the lowest concentration of drug that inhibited visible growth of the organism as per CLSI methods (1) and (2).

[2] = tested on: Viridans group Streptococcus; test: Broth microdilution MIC, 15 clinical isolates; details: 15 Viridans group Streptococci clinical isolates
Experimental: as §1, §2, §3, §4, §5, §6

[3] = tested on: Streptococcus spp.; test: Broth microdilution MIC, 54 clinical isolates; details: 54 Streptococcus spp. clinical isolates
Experimental: as §1, §2, §3, §4, §5, §6

[4] = tested on: Enterococcus faecalis; test: Broth microdilution MIC, 50 clinical isolates
Experimental: as §1, §2, §3, §4, §5, §6

[5] = tested on: Streptococcus agalactiae; test: Broth microdilution MIC, 20 clinical isolates; details: 20 Streptococcus agalactiae clinical isolates
Experimental: as §1, §2, §3, §4, §5, §6

[6] = tested on: Viridans group Streptococci clinical isolates; test: MIC distribution against clinical isolates; details: 15 Viridans group Streptococci isolates
Source text: (§7) As used herein, “minimum inhibitory concentration” or “MIC” refers to the lowest concentration of an antimicrobial agent, for example, an antimicrobial agent as described herein, required to inhibit the growth of an organism. […] “MIC90” represents the MIC value at which ≥90% of the strains within a test population are inhibited; the 90th percentile.
(§8) Many susceptibility testing methods are known in the art and can be used as described herein (see, e.g., Jorgensen and Ferraro (2009) Clinical Infectious Diseases 49:1749-1755; and Maurer et al. (2017) Infectious Disease Reports 9:6839; the entire contents of each of the foregoing are incorporated herein by reference). For example, antimicrobial susceptibility can be determined using conventional culture based methods such as the broth or agar dilution test. In these dilution tests, the bacterial isolate of interest is inoculated onto different media that include serial dilutions of an antimicrobial agent, and incubated under appropriate conditions (e.g., overnight at 37° C.) to allow for growth to occur. Following the incubation period, the media is examined to determine bacterial growth. The lowest concentration of antibiotic that prevents growth represents the minimal inhibitory concentration (MIC). Broth dilution tests can be miniaturized and mechanized allowing for reproducibility and high throughput.

[7] = tested on: Staphylococcus aureus; test: Broth microdilution MIC, 50 clinical isolates (28 MRSA)
Experimental: as §1, §2, §3, §4, §5, §6

[8] = tested on: Streptococcus spp. clinical isolates; test: MIC distribution against clinical isolates; details: 54 Streptococcus spp. isolates
Source text: (n=19 S. pyogenes, n=20 S. agalactiae and n=20 Viridans group Streptococcus) clinical isolates (μg/mL).
as §7, §8

SMILES: COc1c(N2C[C@@H]3CCCN[C@@H]3C2)c(F)cc2c(=O)c(C(=O)O)cn(C3CC3)c12 [moxifloxacin]
- MIC range [1]: 0.06 to 0.5 µg/mL
- Mode [1]: 0.12 µg/mL
- MIC50 ([1]; Streptococcus pyogenes, read-out: MIC50): 0.12 µg/mL (≈ 0.299 µM)
- MIC90 ([1]; Streptococcus pyogenes, read-out: MIC90): 0.25 µg/mL (≈ 0.623 µM)
- MIC range [2]: 0.06 to 8 µg/mL
- MIC50 ([2]; Streptococcus, read-out: MIC50): 0.12 µg/mL (≈ 0.299 µM)
- MIC90 ([2]; Streptococcus, read-out: MIC90): 4 µg/mL (≈ 9.96 µM)
- Mode ([2]; modal MIC): 0.06 µg/mL
- MIC range [3]: 0.06 to 8 µg/mL
- MIC50 ([3]; read-out: MIC50): 0.12 µg/mL (≈ 0.299 µM)
- MIC90 ([3]; read-out: MIC90): 0.5 µg/mL (≈ 1.25 µM)
- Mode ([3]; modal MIC): 0.12 µg/mL
- Mode [4]: >8 µg/mL
- MIC50 ([4]; Enterococcus faecalis, read-out: MIC50): 0.5 µg/mL (≈ 1.25 µM)
- MIC90 ([4]; Enterococcus faecalis, read-out: MIC90): > 8 µg/mL
- MIC range [5]: 0.06 to 0.25 µg/mL
- MIC50 ([5]; read-out: MIC50): 0.12 µg/mL (≈ 0.299 µM)
- MIC90 ([5]; read-out: MIC90): 0.12 µg/mL (≈ 0.299 µM)
- Mode ([5]; modal MIC): 0.12 µg/mL
- Cumulative percentage of isolates inhibited at MIC ([6]; MIC 0.06 μg/mL): 26.7%
- Number of test isolates at MIC ([6]; MIC 0.06 μg/mL): 4
- Cumulative percentage of isolates inhibited at MIC ([6]; MIC 2 μg/mL): 80.0%
- Number of test isolates at MIC ([6]; MIC 2 μg/mL): 2
- Cumulative percentage of isolates inhibited at MIC ([6]; MIC 4 μg/mL): 93.3%
- Number of test isolates at MIC ([6]; MIC 4 μg/mL): 2
- Cumulative percentage of isolates inhibited at MIC ([6]; MIC 8 μg/mL): 100.0%
- Number of test isolates at MIC ([6]; MIC 8 μg/mL): 1
- Mode [7]: 1 µg/mL
- MIC50 ([7]; Staphylococcus aureus, read-out: MIC50): 0.12 µg/mL (≈ 0.299 µM)
- MIC90 ([7]; Staphylococcus aureus, read-out: MIC90): 2 µg/mL (≈ 4.98 µM)
- Cumulative percentage of isolates inhibited at MIC ([8]; MIC 0.06 μg/mL): 24.1%
- Number of test isolates at MIC ([8]; MIC 0.06 μg/mL): 13
- Cumulative percentage of isolates inhibited at MIC ([8]; MIC 0.5 μg/mL): 90.7%
- Number of test isolates at MIC ([8]; MIC 0.5 μg/mL): 1
- Cumulative percentage of isolates inhibited at MIC ([8]; MIC 2 μg/mL): 94.4%
- Number of test isolates at MIC ([8]; MIC 2 μg/mL): 2
- Cumulative percentage of isolates inhibited at MIC ([8]; MIC 4 μg/mL): 98.1%
- Number of test isolates at MIC ([8]; MIC 4 μg/mL): 2
- Cumulative percentage of isolates inhibited at MIC ([8]; MIC 8 μg/mL): 100.0%
- Number of test isolates at MIC ([8]; MIC 8 μg/mL): 1
